Tests used:
Assay in all cases: KINOMEscan competition binding
Settings in all cases: compound 0.1 µM
AXL (human) = AXL (human) (UniProt P30530)
PIM3 (human) = PIM3 (human) (UniProt Q86V86)
[1] = test system: LRRK2 (human), Q5S007 [G2019S]
DYRK2 (human) = DYRK2 (human) (UniProt Q92630)
HIPK2 (human) = HIPK2 (human) (UniProt Q9H2X6)
MAPK9 (human) = MAPK9 (human) (UniProt P45984)
SIK2 (human) = SIK2 (human) (UniProt Q9H0K1)
STK36 (human) = STK36 (human) (UniProt Q9NRP7)
[2] = test system: KIT (human), P10721 [A829P]
FGFR1 (human) = FGFR1 (human) (UniProt P11362)
[3] = test system: PIK3CA (human), P42336 [H1047Y]
Sequence of PIK3CA (human), P42336 [H1047Y] (P42336 whole entry H1047Y, looked up): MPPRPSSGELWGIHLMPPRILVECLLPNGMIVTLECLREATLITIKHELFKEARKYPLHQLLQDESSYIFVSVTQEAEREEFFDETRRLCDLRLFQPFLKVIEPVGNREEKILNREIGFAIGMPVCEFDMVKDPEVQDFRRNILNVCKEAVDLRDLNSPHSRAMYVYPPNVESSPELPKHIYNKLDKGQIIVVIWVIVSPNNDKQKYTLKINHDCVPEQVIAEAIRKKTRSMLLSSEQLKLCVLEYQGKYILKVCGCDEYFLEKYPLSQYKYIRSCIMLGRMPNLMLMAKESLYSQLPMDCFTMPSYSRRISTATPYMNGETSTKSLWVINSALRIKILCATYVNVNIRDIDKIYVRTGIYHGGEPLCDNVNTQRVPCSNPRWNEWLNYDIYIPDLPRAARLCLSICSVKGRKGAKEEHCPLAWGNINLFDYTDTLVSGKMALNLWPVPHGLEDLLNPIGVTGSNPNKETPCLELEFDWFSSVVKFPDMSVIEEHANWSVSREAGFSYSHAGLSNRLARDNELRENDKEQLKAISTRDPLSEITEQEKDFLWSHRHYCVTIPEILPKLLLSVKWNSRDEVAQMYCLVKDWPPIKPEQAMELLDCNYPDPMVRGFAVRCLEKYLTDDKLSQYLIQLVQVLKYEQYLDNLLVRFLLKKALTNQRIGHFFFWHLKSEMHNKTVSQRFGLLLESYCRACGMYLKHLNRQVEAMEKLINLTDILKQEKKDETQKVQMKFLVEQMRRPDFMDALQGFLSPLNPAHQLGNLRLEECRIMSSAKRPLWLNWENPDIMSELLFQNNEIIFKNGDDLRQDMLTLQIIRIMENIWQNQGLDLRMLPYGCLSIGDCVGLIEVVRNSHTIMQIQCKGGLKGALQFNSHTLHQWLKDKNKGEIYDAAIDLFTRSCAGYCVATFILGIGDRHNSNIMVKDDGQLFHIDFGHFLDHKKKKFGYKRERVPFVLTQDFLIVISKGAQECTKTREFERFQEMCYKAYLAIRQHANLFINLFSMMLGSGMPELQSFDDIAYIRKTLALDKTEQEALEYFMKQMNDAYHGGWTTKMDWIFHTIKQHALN

[4] = test system: PIK3CA (human), P42336 [E542K]
Sequence of PIK3CA (human), P42336 [E542K] (P42336 whole entry E542K, looked up): as the sequence (P42336 whole entry H1047Y, looked up) above, with E542K, Y1047H counted along it

MAP2K3 (human) = MAP2K3 (human) (UniProt P46734)
Sequence of MAP2K3 (human) (P46734 whole entry, looked up): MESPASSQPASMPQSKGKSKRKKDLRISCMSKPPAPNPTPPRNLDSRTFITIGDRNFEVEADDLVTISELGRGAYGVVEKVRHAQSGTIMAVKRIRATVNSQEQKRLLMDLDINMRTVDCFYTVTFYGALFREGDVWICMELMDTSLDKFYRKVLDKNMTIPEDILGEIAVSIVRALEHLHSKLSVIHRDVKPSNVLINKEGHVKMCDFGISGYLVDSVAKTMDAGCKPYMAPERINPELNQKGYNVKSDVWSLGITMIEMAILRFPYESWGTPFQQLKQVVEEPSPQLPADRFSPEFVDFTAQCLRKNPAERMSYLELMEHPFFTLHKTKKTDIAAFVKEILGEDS

[5] = molecular target: JAK1 JH2 pseudokinase (human) (UniProt P23458)
Sequence of JAK1 JH2 pseudokinase (human) (P23458 whole entry, looked up): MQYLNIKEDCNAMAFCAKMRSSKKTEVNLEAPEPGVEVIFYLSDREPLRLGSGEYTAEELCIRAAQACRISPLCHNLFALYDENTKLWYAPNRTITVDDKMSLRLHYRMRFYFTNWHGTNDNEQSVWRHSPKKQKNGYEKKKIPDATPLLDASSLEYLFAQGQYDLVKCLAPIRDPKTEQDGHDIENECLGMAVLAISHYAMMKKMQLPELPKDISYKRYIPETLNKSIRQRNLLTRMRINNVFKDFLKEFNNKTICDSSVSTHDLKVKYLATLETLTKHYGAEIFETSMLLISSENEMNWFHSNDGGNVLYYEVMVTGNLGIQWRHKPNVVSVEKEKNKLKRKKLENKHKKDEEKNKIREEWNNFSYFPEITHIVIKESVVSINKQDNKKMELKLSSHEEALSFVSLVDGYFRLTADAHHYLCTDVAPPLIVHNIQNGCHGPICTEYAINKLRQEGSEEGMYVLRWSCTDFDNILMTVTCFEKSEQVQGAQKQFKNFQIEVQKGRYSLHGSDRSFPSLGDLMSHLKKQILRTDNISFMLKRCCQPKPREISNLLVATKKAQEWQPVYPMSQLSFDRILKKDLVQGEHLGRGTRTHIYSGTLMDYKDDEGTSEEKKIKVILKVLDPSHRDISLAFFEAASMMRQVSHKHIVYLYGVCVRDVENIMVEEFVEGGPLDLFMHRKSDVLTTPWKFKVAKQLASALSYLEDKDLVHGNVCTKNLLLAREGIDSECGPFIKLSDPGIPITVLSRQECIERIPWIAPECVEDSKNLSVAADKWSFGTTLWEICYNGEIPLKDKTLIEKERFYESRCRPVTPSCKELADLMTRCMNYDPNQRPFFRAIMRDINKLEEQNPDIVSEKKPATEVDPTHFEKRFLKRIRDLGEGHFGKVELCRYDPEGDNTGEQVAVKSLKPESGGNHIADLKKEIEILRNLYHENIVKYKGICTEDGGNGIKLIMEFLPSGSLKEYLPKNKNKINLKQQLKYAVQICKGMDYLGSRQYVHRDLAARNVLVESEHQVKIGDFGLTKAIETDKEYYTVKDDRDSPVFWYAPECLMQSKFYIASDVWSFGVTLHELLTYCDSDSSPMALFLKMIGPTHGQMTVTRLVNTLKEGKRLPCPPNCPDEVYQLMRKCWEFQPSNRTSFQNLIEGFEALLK

MTOR (human) = MTOR (human) (UniProt P42345)
GAK (human) = GAK (human) (UniProt O14976)
BMPR1B (human) = BMPR1B (human) (UniProt O00238)
CHEK1 (human) = CHEK1 (human) (UniProt O14757)
[6] = test system: EGFR (human), P00533 [747-751 del / S ins]
CDK16 (human) = CDK16 (human) (UniProt Q00536)
CSNK1A1 (human) = CSNK1A1 (human) (UniProt P48729)
[7] = test system: KIT (human), P10721 [V559D/V654A]
DYRK1B (human) = DYRK1B (human) (UniProt Q9Y463)
Sequence of DYRK1B (human) (Q9Y463 whole entry, looked up): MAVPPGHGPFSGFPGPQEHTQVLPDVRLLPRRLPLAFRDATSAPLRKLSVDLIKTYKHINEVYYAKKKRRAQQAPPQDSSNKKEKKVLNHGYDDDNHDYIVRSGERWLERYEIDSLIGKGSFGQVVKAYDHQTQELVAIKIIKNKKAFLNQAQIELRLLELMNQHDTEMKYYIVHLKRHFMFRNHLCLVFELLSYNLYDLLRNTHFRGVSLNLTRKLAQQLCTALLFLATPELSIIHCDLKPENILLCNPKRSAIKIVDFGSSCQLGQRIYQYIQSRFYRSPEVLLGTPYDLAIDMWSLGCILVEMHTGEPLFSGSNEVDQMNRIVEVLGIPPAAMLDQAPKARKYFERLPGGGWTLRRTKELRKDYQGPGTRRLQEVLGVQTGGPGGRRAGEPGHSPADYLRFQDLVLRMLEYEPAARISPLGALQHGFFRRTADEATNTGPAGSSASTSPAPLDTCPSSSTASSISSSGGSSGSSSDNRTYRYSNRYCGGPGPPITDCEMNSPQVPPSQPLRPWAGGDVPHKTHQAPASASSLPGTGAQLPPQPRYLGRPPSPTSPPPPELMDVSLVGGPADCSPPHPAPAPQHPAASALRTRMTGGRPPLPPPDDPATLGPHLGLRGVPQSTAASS

ANKK1 (human) = ANKK1 (human) (UniProt Q8NFD2)
WNK3 (human) = WNK3 (human) (UniProt Q9BYP7)
EPHB1 (human) = EPHB1 (human) (UniProt P54762)
ACVR2A (human) = ACVR2A (human) (UniProt P27037)
[8] = test system: EGFR (human), P00533 [A750P; 747-749 del]
OXSR1 (human) = OXSR1 (human) (UniProt O95747)
LIMK2 (human) = LIMK2 (human) (UniProt P53671)
NTRK1 (human) = NTRK1 (human) (UniProt P04629)
PRKAA1 (human) = PRKAA1 (human) (UniProt Q13131)
Sequence of PRKAA1 (human) (Q13131 whole entry, looked up): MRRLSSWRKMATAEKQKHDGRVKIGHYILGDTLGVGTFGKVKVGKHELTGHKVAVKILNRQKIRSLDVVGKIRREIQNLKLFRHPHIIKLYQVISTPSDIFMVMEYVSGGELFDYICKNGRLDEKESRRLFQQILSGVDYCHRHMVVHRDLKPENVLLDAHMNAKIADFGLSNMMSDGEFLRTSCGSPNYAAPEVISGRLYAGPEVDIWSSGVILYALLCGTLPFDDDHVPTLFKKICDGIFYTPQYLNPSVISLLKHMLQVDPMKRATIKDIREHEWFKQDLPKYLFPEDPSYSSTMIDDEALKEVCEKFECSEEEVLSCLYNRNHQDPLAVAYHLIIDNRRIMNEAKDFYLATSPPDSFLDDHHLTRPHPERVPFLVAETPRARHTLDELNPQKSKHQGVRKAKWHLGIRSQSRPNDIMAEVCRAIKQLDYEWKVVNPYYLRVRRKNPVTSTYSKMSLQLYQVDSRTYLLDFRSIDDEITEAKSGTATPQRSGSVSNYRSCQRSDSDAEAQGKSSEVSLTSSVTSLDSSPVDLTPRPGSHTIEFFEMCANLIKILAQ

CDK8 (human) = CDK8 (human) (UniProt P49336)
ABL1 (human) = ABL1 (human) (UniProt P00519)
RPS6KA4 KD1 (human) = RPS6KA4 KD1 (human) (UniProt O75676)
MAP3K11 (human) = MAP3K11 (human) (UniProt Q16584)
SNRK (human) = SNRK (human) (UniProt Q9NRH2)
Sequence of SNRK (human) (Q9NRH2 whole entry, looked up): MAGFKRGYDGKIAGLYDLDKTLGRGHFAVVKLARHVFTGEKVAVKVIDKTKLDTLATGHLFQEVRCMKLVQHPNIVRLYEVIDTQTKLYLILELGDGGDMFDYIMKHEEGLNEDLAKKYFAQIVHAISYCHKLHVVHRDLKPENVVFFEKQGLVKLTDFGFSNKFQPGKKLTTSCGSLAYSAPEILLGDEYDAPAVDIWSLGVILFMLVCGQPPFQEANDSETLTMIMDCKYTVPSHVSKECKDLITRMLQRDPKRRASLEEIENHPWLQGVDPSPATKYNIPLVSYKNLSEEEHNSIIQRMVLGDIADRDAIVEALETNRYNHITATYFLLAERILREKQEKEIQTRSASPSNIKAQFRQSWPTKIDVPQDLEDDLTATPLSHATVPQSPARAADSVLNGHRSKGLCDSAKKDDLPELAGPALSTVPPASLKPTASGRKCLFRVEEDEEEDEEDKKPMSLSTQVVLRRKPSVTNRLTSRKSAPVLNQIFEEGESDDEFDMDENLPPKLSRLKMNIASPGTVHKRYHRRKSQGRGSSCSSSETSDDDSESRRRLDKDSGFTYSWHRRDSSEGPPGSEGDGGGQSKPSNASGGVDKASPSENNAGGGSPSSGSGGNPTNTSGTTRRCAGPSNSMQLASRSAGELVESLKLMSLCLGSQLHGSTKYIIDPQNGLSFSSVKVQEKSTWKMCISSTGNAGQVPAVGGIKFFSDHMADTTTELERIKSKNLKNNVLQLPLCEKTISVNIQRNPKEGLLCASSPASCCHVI

BRSK1 (human) = BRSK1 (human) (UniProt Q8TDC3)
EPHB3 (human) = EPHB3 (human) (UniProt P54753)
NLK (human) = NLK (human) (UniProt Q9UBE8)

CCc1ccc(C(=O)Nc2cc(CN3CCN(C)CC3)cc(C(F)(F)F)c2)cc1C#Cc1cnc2ccnn2c1
kinase still bound, per cent of control (AXL (human)): 100%
kinase still bound, per cent of control (PIM3 (human)): 77%
kinase still bound, per cent of control [1]: 94%
kinase still bound, per cent of control (DYRK2 (human)): 86%
kinase still bound, per cent of control (HIPK2 (human)): 100%
kinase still bound, per cent of control (MAPK9 (human)): 100%
kinase still bound, per cent of control (SIK2 (human)): 100%
kinase still bound, per cent of control (STK36 (human)): 84%
kinase still bound, per cent of control [2]: 69%
kinase still bound, per cent of control (FGFR1 (human)): 84%
kinase still bound, per cent of control [3]: 76%
kinase still bound, per cent of control [4]: 100%
kinase still bound, per cent of control (MAP2K3 (human)): 100%
kinase still bound, per cent of control [5]: 100%
kinase still bound, per cent of control (MTOR (human)): 100%
kinase still bound, per cent of control (GAK (human)): 95%
kinase still bound, per cent of control (BMPR1B (human)): 100%
kinase still bound, per cent of control (CHEK1 (human)): 100%
kinase still bound, per cent of control [6]: 100%
kinase still bound, per cent of control (CDK16 (human)): 100%
kinase still bound, per cent of control (CSNK1A1 (human)): 100%
kinase still bound, per cent of control [7]: 100%
kinase still bound, per cent of control (DYRK1B (human)): 53%
kinase still bound, per cent of control (ANKK1 (human)): 100%
kinase still bound, per cent of control (WNK3 (human)): 100%
kinase still bound, per cent of control (EPHB1 (human)): 96%
kinase still bound, per cent of control (ACVR2A (human)): 97%
kinase still bound, per cent of control [8]: 90%
kinase still bound, per cent of control (OXSR1 (human)): 100%
kinase still bound, per cent of control (LIMK2 (human)): 100%
kinase still bound, per cent of control (NTRK1 (human)): 75%
kinase still bound, per cent of control (PRKAA1 (human)): 83%
kinase still bound, per cent of control (CDK8 (human)): 76%
kinase still bound, per cent of control (ABL1 (human)): 100%
kinase still bound, per cent of control (RPS6KA4 KD1 (human)): 93%
kinase still bound, per cent of control (MAP3K11 (human)): 83%
kinase still bound, per cent of control (SNRK (human)): 75%
kinase still bound, per cent of control (BRSK1 (human)): 100%
kinase still bound, per cent of control (EPHB3 (human)): 94%
kinase still bound, per cent of control (NLK (human)): 45%
